Activity and EC50 data for two molecules are collected here from ChEMBL document CHEMBL3880399 (2004).

In one assay the test system is Mus musculus. In words: Reduction in d-amphetamine-induced hyperactivity in sc dosed mouse. The assay is classed as functional.
For the next assay, the system named is Rattus norvegicus. In words: Antipsychotic activity in rat assessed as reduction in MK-801-induced locomotor behaviors at 1 mg/kg, ip. The assay is classed as functional, organism-based.
A further assay relates to Homo sapiens. Nature of the assay: Potentiation of levadopa-induced improvements in parkinsonian symptoms in parkinsonian patient administered orally once daily for four weeks with dose escalating once each week (30 mg on week2, 70 mg on week3, 150 mg on week 4 and 300 mg on week 5) in placebo controlled study lasting for 5 weeks measured on first day of each dose escalation. The assay is classed as functional.

Calls of active or inactive are those of the source. The calls are words filed in the database; no cut-off is given here.

Take `O=C(CCCN1CCC(O)(c2ccc(Cl)cc2)CC1)c1ccc(F)cc1`: in the assay with Mus musculus, the Activity entry was “Dose-dependent effect”.

With `CN1CCN(C2=Nc3cc(Cl)ccc3Nc3ccccc32)CC1` [CLOZAPINE], the outcome in the assay with Rattus norvegicus was Active. For the same molecule, in the assay on Homo sapiens, the EC50 amounted to 6.4 nM.

By EC50 is commonly meant the midpoint of the concentration-response curve.
